Reference: paper PMC8781238 (European journal of medicinal chemistry, 2020)
“Also recorded” adds a separate entry of the source.

Assays:
[1] = tested on: U-251 MG human glioblastoma cells; assay: In vitro cell viability assay; type: cell-based; conditions: 125 µM, 24 hours incubation; for Antitumor activity on U-251 MG cell viability (in words): compared with compound 7 (ABC294640)
recombinant human SphK2 = target: T1, recombinant human SphK2 (Homo sapiens, UniProt Q9NRA0); assay: ADP-Glo kinase assay, SphK2; conditions: comparison of SphK1 and SphK2 activity at 125 µM compound (Fig. 5)
T1 sequence (Q9NRA0 1-654): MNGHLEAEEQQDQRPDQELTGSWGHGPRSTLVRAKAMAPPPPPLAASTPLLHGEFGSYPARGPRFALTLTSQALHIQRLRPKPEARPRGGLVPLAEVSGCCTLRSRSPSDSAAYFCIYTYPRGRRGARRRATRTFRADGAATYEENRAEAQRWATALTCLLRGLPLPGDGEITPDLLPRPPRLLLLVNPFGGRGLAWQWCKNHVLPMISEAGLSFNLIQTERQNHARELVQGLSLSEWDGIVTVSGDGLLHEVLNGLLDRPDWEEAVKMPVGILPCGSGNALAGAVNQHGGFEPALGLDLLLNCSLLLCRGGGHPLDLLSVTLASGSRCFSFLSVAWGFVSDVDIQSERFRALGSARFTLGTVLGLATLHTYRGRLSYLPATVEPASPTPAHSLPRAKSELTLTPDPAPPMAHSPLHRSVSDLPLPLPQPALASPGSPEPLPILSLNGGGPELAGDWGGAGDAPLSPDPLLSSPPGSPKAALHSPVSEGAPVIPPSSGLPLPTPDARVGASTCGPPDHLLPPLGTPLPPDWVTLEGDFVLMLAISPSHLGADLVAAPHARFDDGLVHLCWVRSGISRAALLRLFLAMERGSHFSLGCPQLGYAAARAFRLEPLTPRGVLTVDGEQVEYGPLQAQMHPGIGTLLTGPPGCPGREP

SphK2 = conditions: cited from earlier work
SphK1 = conditions: read-out: SphK1 IC50; cited from earlier work

Compound | Antitumor activity on U-251 MG cell viability (in words) [1] | Selectivity/specificity for SphK2 over SphK1 (in words) (recombinant human SphK2) | further results
Cl.N=C(N)N1CCC[C@H]1Cc1nc(-c2ccc(Cn3cc(-c4ccccc4)nn3)cc2)no1 [Compound 21a, (S)-2-((3-(4-((4-Phenyl-1H-1,2,3-triazol-1-yl)methyl)phenyl)-1,2,4-oxadiazol-5yl)methyl)pyrrolidine-1-carboximidamide hydrochloride] | highest anti-tumor activity; also recorded: strongest antitumor activity |  | 
Cl.N=C(N)N1CCC[C@H]1Cc1nc(-c2ccc(Cn3cc(C4CC4)nn3)cc2)no1 [Compound 21f, (S)-2-((3-(4-((4-Cyclopropyl-1H-1,2,3-triazol-1-yl)methyl)phenyl)-1,2,4-oxadiazol-5-yl)methyl)pyrrolidine-1-carboximidamide hydrochloride] |  | lowest specificity; also recorded: no selective | 
Cl.Cn1cc(-c2cn(Cc3ccc(-c4noc(C[C@@H]5CCCN5C(=N)N)n4)cc3)nn2)cn1 [Compound 21g, (S)-2-((3-(4-((4-(1-Methyl-1H-pyrazol-4-yl)-1H-1,2,3-triazol-1-yl)methyl)phenyl)-1,2,4-oxadiazol-5-yl)methyl)pyrrolidine-1-carboximidamide hydrochloride] |  | high selectivity; also recorded: highest specificity | 
COc1ccc(-c2cn(Cc3ccc(-c4noc([C@@H]5CCCN5C(=N)N)n4)cc3)nn2)cc1.Cl [Compound 25d] | comparable reduction of viability |  | 
Cl.N=C(N)N1CCC[C@H]1c1nc(-c2ccc(Cn3cc(-c4ccc(C(F)(F)F)cc4)nn3)cc2)no1 [Compound 25b] | highest anti-tumor activity; also recorded: tremendously decrease the viability; also recorded: strongest antitumor activity; also recorded: higher antitumor activity |  | 
Cl.N=C(N)N1CCC[C@H]1Cc1nc(-c2ccc(Cn3cc(-c4ccc(C(F)(F)F)cc4)nn3)cc2)no1 [Compound 21b, (S)-2-((3-(4-((4-(4-(Trifluoromethyl)phenyl)-1H-1,2,3-triazol-1-yl)methyl)phenyl)-1,2,4-oxadiazol-5-yl)methyl)-pyrrolidine-1-carboximidamide hydrochloride] | highest anti-tumor activity; also recorded: strongest antitumor activity | lowest specificity; also recorded: no selective | 
CCCCc1cn(Cc2ccc(-c3noc([C@@H]4CCCN4C(=N)N)n3)cc2)nn1.Cl [Compound 25f] |  | high selective | 
Cl.N=C(N)N1CCC[C@H]1c1nc(-c2ccc(Cn3cc(-c4ccccn4)nn3)cc2)no1 [Compound 25c, (S)-2-(3-(4-((4-(Pyridin-2-yl)-1H-1,2,3-triazol-1-yl)methyl)phenyl)-1,2,4-oxadiazol-5-yl)pyrrolidine-1-carboximidamide hydrochloride] |  | lowest specificity | 
N=C(N)N1CCC[C@H]1Cc1nc(-c2ccc(Nc3nc(-c4cccc(C(F)(F)F)c4)cs3)cc2)no1 [Compound 13] |  |  | Ki (SphK2; read-out: SphK2 Ki): 0.09 µM
Cl.Cn1cc(-c2cn(Cc3ccc(-c4noc(C5(C(=N)N)CC5)n4)cc3)nn2)cn1 [Compound 29b] |  | highly selective | 
Cl.N=C(N)N1CCC[C@H]1Cc1nc(-c2ccc(Cn3cc(-c4ccccn4)nn3)cc2)no1 [Compound 21c, (S)-2-((3-(4-((4-(Pyridin-2-yl)-1H-1,2,3-triazol-1-yl)methyl)phenyl)-1,2,4-oxadiazol-5-yl)methyl)pyrrolidine-1-carboximidamide hydrochloride] |  | high selectivity; also recorded: highest specificity | 
COc1ccc(-c2cn(Cc3ccc(-c4noc(C[C@@H]5CCCN5C(=N)N)n4)cc3)nn2)cc1.Cl [Compound 21e, (S)-2-((3-(4-((4-(4-Methoxyphenyl)-1H-1,2,3-triazol-1-yl)methyl)phenyl)-1,2,4-oxadiazol-5-yl)methyl)pyrrolidine-1-carboximidamide hydrochloride] | comparable reduction of viability | high selectivity; also recorded: highest specificity | 
O=C(NCc1ccncc1)C12CC3CC(C1)CC(c1ccc(Cl)cc1)(C3)C2 [Compound 7] |  |  | Reduction of cell viability of U-251 MG cells [1]: approximately 50%; IC50 (SphK1): ≥ 100 µM; IC50 (SphK2; read-out: SphK2 IC50): ~60 µM
Cl.N=C(N)N1CCC[C@H]1c1nc(-c2ccc(Cn3cc(C4CC4)nn3)cc2)no1 [Compound 25h] |  | high selective | 
Cl.N=C(N)C1(c2nc(-c3ccc(Cn4cc(-c5ccccc5)nn4)cc3)no2)CC1 [Compound 29a, 1-(3-(4-((4-Phenyl-1H-1,2,3-triazol-1-yl)methyl)phenyl)-1,2,4-oxadiazol-5-yl)cyclopropanecarboximidamide hydrochloride] |  | highly selective | 
CCCCc1cn(Cc2ccc(-c3noc(C[C@@H]4CCCN4C(=N)N)n3)cc2)nn1.Cl [Compound 21d, (S)-2-((3-(4-((4-Butyl-1H-1,2,3-triazol-1-yl)methyl)phenyl)-1,2,4-oxadiazol-5-yl)methyl)pyrrolidine-1-carboximidamide hydrochloride] |  | lowest specificity; also recorded: no selective | 
